# Measurements reported in US12691056B2 (priority 2020, dated 2026).
# Tests used:
# [1] = aripiprazole intramuscular depot formulation; cited from earlier work
# [2] = cited from earlier work
# [3] = system: CYP1A1, CYP1A2, CYP2A6, CYP2B6, CYP2C8, CYP2C9, CYP2C19, or CYP2E1 enzymes; settings: cited from earlier work
# [4] = system: CYP3A4 and CYP2D6 enzymes; settings: in vitro studies; cited from earlier work
# [5] = Inter-Individual Variability (CV %)
# [6] = final combined popPK model, Fixed
SMILES,share of the parent drug exposure in plasma [1],share of aripiprazole AUC in plasma ([2]; at steady-state),"substrate of CYP1A1, CYP1A2, CYP2A6, CYP2B6, CYP2C8, CYP2C9, CYP2C19, or CYP2E1 enzymes [3]",enzyme for N-dealkylation [4],enzymes for dehydrogenation and hydroxylation [4],lower apparent clearance in CYP2D6 poor metabolizers (CYP2D6 PM subjects),IIV on Vc [5],IIV on deltoid IM Ka [5],IIV on gluteal IM Ka [5],"IIV on oral Ka (Inter-Individual Variability (CV %), Fixed)",CL Apparent clearance for subjects who are not poor CYP2D6 metabolizers [6],CLpm Apparent clearance for subjects who are poor CYP2D6 metabolizers [6],IM Ka_BMI Effect of BMI on IH Ka: power for (BMI/28) [6],IM Ka_male Proportional shift of IM Ka for males [6],IMKa Gluteal IM 1st order absorption safe constant [6],Q1 Inter-compartmental clearance 1 [6],Q2 Inter-compartmental clearance 2 [6],absolute oral bioavailability ([2]; tablet formulation)
O=c1ccc2ccc(OCCCCN3CCN(c4cccc(Cl)c4Cl)CC3)cc2[nH]1 [dehydro-aripiprazole],about 29%,about 40%,,,,,,,,,,,,,,,,
"O=C1CCc2ccc(OCCCCN3CCN(c4cccc(Cl)c4Cl)CC3)cc2N1 [aripiprazole, 7-[4-[4-(2,3-dichlorophenyl)-1-piperazinyl]butoxy]-3,4-dihydrocarbostyril]",,,not a substrate,catalyzed by CYP3A4,CYP3A4 and CYP2D6 enzymes are responsible,approximately 50%,2.18 (148%),0.237 (48.9%),0.359 (60.0%),0.434 (65.9%),3.71 Fixed L/hr,1.88 Fixed Lhr,−0.975 Fixed,0.346 Fixed,0.000904 h⁻¹,0.591 Fixed L/hr,28.8 Fixed L/hr,about 87%
